Here are results for two molecules from BindingDB's records for patent US12544374 (Novartis, 2026).

Assay [1] concerns the target T1, Histone-lysine N-methyltransferase EZH2/Polycomb protein EED/Polycomb protein SUZ12 (Human, UniProt O75530+Q15022+Q15910). Briefly: EZH2 LC-MS Assay. As for the experimental part:
Representative compounds of the invention were serially and separately diluted 3-fold in DMSO to obtain twelve concentrations. […] Solutions (6 μL) of 80 nM wild type PRC2 (wtPRC2) complex and 60 μM SAM in reaction buffer (20 mM Tris, pH 8.0, 0.1% BSA, 0.01% Triton, 0.5 mM DTT) were added to the wells that were then incubated with the test compound for 20 min. A 6 μL solution of 3 μM of the substrate peptide H3K27me1 (histone H3[21-44]-K27me1-biotin) and 6 μM regulatory peptide H3K27me3 (histone H3[21-44]-K27me3) in reaction buffer was added to initiate each reaction. […] The data were fit to a dose response equation using the program Helios to get the IC50 values of the test compound.

For assay [2], the target named is T1, Histone-lysine N-methyltransferase EZH2/Polycomb protein EED/Polycomb protein SUZ12. Briefly: ELISA Assay. As for the experimental part: ELISA protocol: Cell lysates were transferred to the wells of a 384-well plate and the final volume was adjusted to 50 μL per well with PBS. The plate was sealed, centrifuged at 2,000 rpm for 2 min and incubated at 4° C. for about 16 h. The plate was washed with TBST buffer (1×TBS (10×TBS: 24.2 g Tris (Sigma, T6066), 80 g NaCl (Sigma, S3014) to 1 L of water and adjust pH to 7.6 with HCl) with 0.1% Tween-20). Blocking buffer (TBST, 5% BSA; 50 μL per well) was added and the plate was incubated for 1 h at rt. The blocking buffer was removed and primary antibody was added (30 μL per well). […] The primary antibody was incubated in the plate at rt for 1 h. The wells were washed with TBST and incubated with secondary antibody for 1 h at rt.

T1 sequence (Q15910 whole entry): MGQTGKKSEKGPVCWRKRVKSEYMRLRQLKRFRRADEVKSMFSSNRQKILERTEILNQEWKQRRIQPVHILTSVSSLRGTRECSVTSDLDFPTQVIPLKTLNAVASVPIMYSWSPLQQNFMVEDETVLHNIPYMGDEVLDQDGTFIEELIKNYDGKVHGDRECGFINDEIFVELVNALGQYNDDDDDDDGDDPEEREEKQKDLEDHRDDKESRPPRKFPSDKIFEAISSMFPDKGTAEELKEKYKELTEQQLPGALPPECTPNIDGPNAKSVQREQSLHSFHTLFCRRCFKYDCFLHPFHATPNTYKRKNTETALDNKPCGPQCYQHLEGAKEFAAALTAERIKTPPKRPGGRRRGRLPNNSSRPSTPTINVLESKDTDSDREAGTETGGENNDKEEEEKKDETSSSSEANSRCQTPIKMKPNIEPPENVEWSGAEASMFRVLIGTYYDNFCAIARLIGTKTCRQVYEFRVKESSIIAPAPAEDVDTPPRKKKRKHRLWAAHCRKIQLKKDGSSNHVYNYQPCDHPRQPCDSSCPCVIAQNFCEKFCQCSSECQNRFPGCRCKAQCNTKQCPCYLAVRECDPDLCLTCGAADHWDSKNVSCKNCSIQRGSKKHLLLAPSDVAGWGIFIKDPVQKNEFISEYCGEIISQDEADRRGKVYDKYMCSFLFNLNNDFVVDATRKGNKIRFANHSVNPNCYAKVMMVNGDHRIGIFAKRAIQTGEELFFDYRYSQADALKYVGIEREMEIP
T1 sequence (O75530 whole entry): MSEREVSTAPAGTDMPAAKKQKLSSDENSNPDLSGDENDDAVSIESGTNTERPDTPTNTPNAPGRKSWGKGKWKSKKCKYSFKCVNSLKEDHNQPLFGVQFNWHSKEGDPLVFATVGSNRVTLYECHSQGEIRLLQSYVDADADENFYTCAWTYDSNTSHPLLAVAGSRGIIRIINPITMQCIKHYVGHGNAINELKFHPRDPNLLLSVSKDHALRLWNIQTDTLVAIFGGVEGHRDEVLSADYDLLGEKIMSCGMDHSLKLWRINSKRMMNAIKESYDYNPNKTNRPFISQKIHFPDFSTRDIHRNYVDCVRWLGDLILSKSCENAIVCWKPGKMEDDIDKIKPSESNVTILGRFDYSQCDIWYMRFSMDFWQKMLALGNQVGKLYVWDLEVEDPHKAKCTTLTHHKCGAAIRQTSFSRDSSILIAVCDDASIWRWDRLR
T1 sequence (Q15022 whole entry): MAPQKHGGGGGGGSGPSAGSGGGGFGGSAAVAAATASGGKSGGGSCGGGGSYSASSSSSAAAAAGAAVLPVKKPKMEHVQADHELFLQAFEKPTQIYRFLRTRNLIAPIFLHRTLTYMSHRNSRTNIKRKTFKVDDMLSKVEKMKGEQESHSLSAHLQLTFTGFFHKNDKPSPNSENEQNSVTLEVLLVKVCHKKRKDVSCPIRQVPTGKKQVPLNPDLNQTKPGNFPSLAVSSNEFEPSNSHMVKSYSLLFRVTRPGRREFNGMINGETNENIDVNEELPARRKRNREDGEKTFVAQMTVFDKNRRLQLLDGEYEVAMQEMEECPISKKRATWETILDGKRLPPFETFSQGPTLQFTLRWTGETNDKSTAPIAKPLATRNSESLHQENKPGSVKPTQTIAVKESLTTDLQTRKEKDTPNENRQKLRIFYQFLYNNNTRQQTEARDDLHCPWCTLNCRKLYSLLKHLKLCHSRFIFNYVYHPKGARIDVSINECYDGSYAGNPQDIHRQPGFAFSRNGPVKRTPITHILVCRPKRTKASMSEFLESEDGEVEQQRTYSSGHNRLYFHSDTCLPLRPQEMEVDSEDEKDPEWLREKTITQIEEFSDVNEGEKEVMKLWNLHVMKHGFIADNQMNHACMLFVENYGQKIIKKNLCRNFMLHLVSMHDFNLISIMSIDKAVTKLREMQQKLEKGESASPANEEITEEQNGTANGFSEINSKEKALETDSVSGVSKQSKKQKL

On to `Clc1nccc2ccc(NC3CCC(CNc4ncc(COC5COC5)cn4)CC3)nc12` (stereo not drawn) [US12544374, Compound C35], for which half-maximal inhibition in assay [1] (IC50) required 27 nM.
For `COCCOC(=O)Nc1cnc(NCC2CCC(Nc3ccc4ccnc(Cl)c4n3)CC2)nc1` (stereo not drawn) [US12544374, Compound C16], the IC50 (commonly the concentration that gives 50% inhibition) in assay [1] stood at 15 nM; in assay [2] it was 27 nM.
